These results are taken from patent US20140113899A1 (priority 2011, published 2014).

Where two headings read alike, the source gives them in different places. Where only a bound is given, the exact number is not on record here.

The subject of assay [1] is Fusarium graminearum. Format: in vivo.
The next assay concerns Glomerella cingulata. Description: Test Example 4: in vitro antimicrobial activity test with bixafen and Compound I-1. It counts as cell-based.
Another assay relates to Puccinia recondida. The assay can be described thus: Test Example 7: controlling effect of isopyrazam and Compound I-1 on wheat brown rust. It counts as in vivo. The protocol:
Isopyrazam and Compound I-1 were mixed at a given ratio and a test for a cooperative effect against wheat brown rust was carried out. First, a chemical suspension containing isopyrazam and Compound I-1 were prepared and sprayed on a pot of a wheat plant at two leaves stage so that thus sprayed isopyrazam and Compound I-1 became a predetermined dosage. Then, after the pot was left for approximately one hour at a room temperature so that the plant body dries, Puccinia recondida was inoculated by spraying an urediniospore suspended solution (1×10^5/ml) of Puccinia recondida. Then, the pot was kept in a wet chamber at 20° C. for 15 hours, and after 14 days, onset of disease was examined by a disease-onset area index. Here, the test was conducted by use of one plot pot.

A further assay relates to Botrytis cinere. The assay can be described thus: Test Example 11: in vitro antimicrobial activity test with azoxystrobin and Compound I-1. Format: cell-based. An excerpt: Then, a mycelial growth inhibition ratio against Botrytis cinere was obtained.
The subject of the next assay is Gaeumannomyces graminis. Description: Test Example 13: in vitro antimicrobial activity test with prochloraz and Compound I-1. It counts as cell-based. An excerpt:
Then, a mycelial growth inhibition ratio against Gaeumannomyces graminis was obtained.

A further assay has as its system Alternaria alternata. Description: Test Example 15: in vitro antimicrobial activity test with fenpropimorph and Compound I-1. Format: cell-based. The text has this: Then, a mycelial growth inhibition ratio against Alternaria alternata was obtained.
The test system of assay [2] is Pseudocercoporella herpotrichoides. The assay can be described thus: Test Example 16: in vitro antimicrobial activity test with thiophanate-methyl and Compound I-1. It counts as cell-based.
For a further assay, the system named is Rhizoctonia solani. The assay can be described thus: Test Example 18: in vitro antimicrobial activity test with chlorothalonil and Compound I-1. Format: cell-based. The conditions noted are these: Compound I-1 1.25 ppm alone.
In a further assay the test system is Pythium aphanidermatum. Description: Test Example 19: in vitro antimicrobial activity test with metalaxyl and Compound I-1. The conditions noted are these: Compound I-1 0.005 ppm alone. It counts as cell-based.
Assay [3] relates to Fusarium graminearum. It counts as in vivo. The conditions noted are these: wettable powder containing only the compound, 500 mg/L, sprayed at 1,000 L/ha; fourth to seventh days after inoculation.
Assay [4] has as its system Microdocum nivale. Description: Test Example 9: in vitro antimicrobial activity test with benodanil and Compound I-1. The conditions noted are these: Compound I-1 0.078 ppm alone.
Method: (§1) In the test, a flora disk of 4 mm in diameter was cut from an area around a colony of Microdocum nivale pre-cultured in advance in a pre-culture PDA medium, and Microdocum nivale was inoculated on the PDA medium where chemical agents were mixed. After culturing at 25° C. for 3 days, a diameter of a grown colony was measured. Then, a mycelial growth inhibition ratio was calculated by comparing the diameter of this grown colony with a diameter of a colony on a medium without the chemical agents. As in Test Example 1, a cooperative effect was judged by use of Colby's formula.
Assay [5] concerns Microdocum nivale. Description: Test Example 10: in vitro antimicrobial activity test with penthiopyrad and Compound I-1.
Method: as §1
Then, a mycelial growth inhibition ratio against Microdocum nivale was obtained.
For assay [6], the system named is Microdocum nivale. Description: Test Example 14: in vitro antimicrobial activity test with prothioconazole and Compound I-1.
Assay [7] deals with Fusarium graminearum. It counts as in vivo. The conditions noted are these: Furametpyr 20 g/ha alone.
Assay [8] has as its system Fusarium graminearum. It counts as in vivo. The settings on record: Fluopyram 20 g/ha alone.

With `C[C@@]1(CCl)CC[C@H](Cc2ccc(Cl)cc2)[C@@]1(O)Cn1cncn1` (racemic) [Compound I-1, (1RS,2SR,5SR)-5-(4-chlorobenzyl)-2-chloromethyl-2-methyl-1-(1H-1,2,4-triazole-1-ylmethyl)cyclopentanol], the “Actual Protective Value” stood at 9.4 with Fusarium graminearum [1] (Compound (I) 4 g/ha alone); 12.9 in the assay with Fusarium graminearum [1] (Compound (I) 8 g/ha alone); 13 in the assay with Puccinia recondida (Compound I-1 0.1875 g/ha alone); 37 in the assay on Puccinia recondida (Compound I-1 0.375 g/ha alone); 67 in the assay on Puccinia recondida (Compound I-1 0.75 g/ha alone); 80 in the assay with Puccinia recondida (Compound I-1 1.5 g/ha alone). Also, the “Actual Protective Value” in the assay on Puccinia recondida (Compound I-1 3 g/ha alone) was found to be 93. Moreover, the “Mycelial Growth Inhibition Ratio % Measured Value” in the assay on Glomerella cingulata (Compound (I) 0.005 ppm alone) amounted to 13%; with Glomerella cingulata (Compound (I) 0.02 ppm alone) it was 23%; in the assay on Botrytis cinere (Compound I-1 0.02 ppm alone), 25%; in the assay on Botrytis cinere (Compound I-1 0.078 ppm alone), 47%; in the assay with Gaeumannomyces graminis (Compound I-1 0.02 ppm alone), 0%; in the assay with Gaeumannomyces graminis (Compound I-1 0.078 ppm alone), 17%. Also, the “Mycelial Growth Inhibition Ratio % Measured Value” in the assay with Gaeumannomyces graminis (Compound I-1 0.313 ppm alone) is listed as 74%; in the assay on Alternaria alternata (Compound I-1 0.02 ppm alone), 3%; with Alternaria alternata (Compound I-1 0.078 ppm alone) it was 24%; in the assay with Alternaria alternata (Compound I-1 0.313 ppm alone) it was 50%; in assay [2] (Compound I-1 0.078 ppm alone), 3%; in assay [2] (Compound I-1 0.313 ppm alone), 42%. Also, the “Mycelial Growth Inhibition Ratio % Measured Value” in the assay on Rhizoctonia solani is listed as 68%; with Pythium aphanidermatum, 9%; in the assay on Microdocum nivale [4] it was 8%; in the assay on Microdocum nivale [5] (Compound I-1 0.005 ppm alone), 5%; with Microdocum nivale [5] (Compound I-1 0.02 ppm alone), 10%; in the assay with Microdocum nivale [5] (Compound I-1 0.078 ppm alone), 12%. Also, the “Mycelial Growth Inhibition Ratio % Measured Value” in the assay on Microdocum nivale [6] (Compound I-1 0.078 ppm alone) is given as 8%; in the assay on Microdocum nivale [6] (Compound I-1 0.313 ppm alone) it was 34%. The molecule further displayed a protective value in the assay on Fusarium graminearum [3] of at least 90%.

For the molecule `Cc1nn(C)c(Cl)c1C(=O)Nc1cccc2c1C(C)OC2(C)C` (stereo not drawn) [Furametpyr], the “Actual Protective Value” in the assay on Fusarium graminearum [7] was found to be 0.

`O=C(NCCc1ncc(C(F)(F)F)cc1Cl)c1ccccc1C(F)(F)F` [Fluopyram]: the “Actual Protective Value” in the assay on Fusarium graminearum [8] came to 0.
